Legend:
[1] = system: C1a and C1b domains of PKCε; details: C1a vs C1b; cited from earlier work
PKCδ C1b domain = PKCδ C1b domain (Mus musculus, UniProt P28867); assay: [3H]PDBu competitive binding assay, isolated C1b domain of PKCδ; details: read-out: Kd for the binding of [3H]PDBu to the PKCδ C1b
[2] = system: EGFP-tagged PKCδ in CHO cells; assay: Translocation of EGFP-tagged PKCδ in CHO cells, confocal microscopy; type: cell-based, Chinese hamster; details: 10 μM compound, images at 0, 5 and 10 min
isolated PKCδ C1a domain = details: cited from earlier work
isolated PKCδ C1b domain = details: read-out: Kd for the isolated PKCδ C1b domain; cited from earlier work
[3] = system: EGFP-tagged PKCε in LNCaP cells; assay: Translocation of GFP-tagged PKCε in LNCaP cells, confocal microscopy; type: cell-based, human; details: 1 μM, single experiment

PKCδ C1b domain, sequence (P28867 231-280 limits assumed): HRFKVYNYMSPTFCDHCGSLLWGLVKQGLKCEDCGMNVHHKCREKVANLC

Compound | difference in affinity between the C1a and C1b domains of PKCε [1] [fold] | Kd (PKCδ C1b domain) [nM] | translocation of EGFP-PKCδ from cytosol to plasma membranes [2] | difference in Kd between isolated PKCδ C1a and C1b domains (isolated PKCδ C1a domain; C1a vs C1b, isolated domains) [fold] | Kd (isolated PKCδ C1a domain; read-out: Kd for the isolated PKCδ C1a domain) [nM] | Kd (isolated PKCδ C1b domain) [nM] | plasma membrane translocation of PKCε [3]
sn-1,2-diacylglycerol [DAG] | ≤ 3 |  |  |  |  |  | 
CCCC(=O)O[C@@H]1[C@@H](C)[C@@]2(O)[C@@H](C=C(CO)C[C@]3(O)C(=O)C(C)=C[C@@H]23)[C@@H]2C(C)(C)[C@]12OC(=O)CCC [PDBu, phorbol 12,13-dibutyrate] |  | 0.19 | not observed more clearly than those by monomeric and dimeric DAG–lactones | 6 | 2 | 0.33 | 
CCCCCCCCCCCCCC(=O)O[C@@H]1[C@@H](C)[C@@]2(O)[C@@H](C=C(CO)C[C@]3(O)C(=O)C(C)=C[C@@H]23)[C@@H]2C(C)(C)[C@]12OC(C)=O [PMA, phorbol 12-myristate 13-acetate] | ≤ 3 |  |  |  |  |  | dramatic plasma membrane translocation
